“Also recorded” adds a separate entry of the source.
Columns and labels:
[1] = tested on: A549 cell line; assay: MTT cell viability, A549 cell line; type: cell-based, human
Experimental: The above cell lines were plated in 96-well plates at a density of 1×10^4 cells/well for 16 to 20 hours. […] After drug treatment, the cell lines were washed with phosphate-buffered saline (hereinafter referred to PBS), and were replaced with fresh complete RPMI-1640 medium for 2 days. Thereafter, the medium was replaced and the cells were incubated with 0.5 mg/ml of 3-(4,5-dimethylthiazol-2-yl)-2,5-diphenyltetrazolium bromide reagent (hereinafter referred to MTT, Sigma Chemical Co., St. Louis, Mo.) in complete RPMI-1640 medium for 4 hours. The viable cells converted MTT to formazan that generates a blue-purple color when dissolved in dimethyl sulfoxide (hereinafter referred to DMSO). The intensity of formazan was measured at 565 nm using a plate reader (VERSAmax, Molecular Dynamics, Sunnyvale, Calif.). The relative percentage of cell viability was calculated by dividing the absorbance of treated cells by that of the control in each experiment.
(§1) After drug treatment, the cells were washed with PBS and replaced with fresh complete RPMI-1640 medium for 2 days. Thereafter, the medium was replaced and the cells were incubated with 0.5 mg/mL of MTT reagent (Sigma Chemical Co., St. Louis, Mo.) in complete RPMI-1640 medium for 4 hours. The intensity of formazan was measured at 565 nm using a plate reader (VERSAmax, Molecular Dynamics, Sunnyvale, Calif.). The relative percentage of cell viability was calculated by dividing the absorbance of treated cells by that of the control in each experiment.

[2] = tested on: CL3 human lung cancer cell line; assay: MTT cell viability, CL3 cells; type: cell-based; conditions: 24 hours
Experimental: as §1

[3] = MTT cell viability, HFL1 normal lung fibroblasts; type: cell-based; conditions: human, HFL1 normal lung fibroblast cells, 0 to 40 μM
Experimental: as §1

[4] = biological target: T1, EGFR (epidermal growth factor receptor) (Homo sapiens, UniProt P00533); assay: KinaseProfiler assay, EGFR; type: biochemical; conditions: read-out: KAR value (kinase activity remaining)
T1 construct: purchased Merck Millipore (KinaseProfiler service)
T1 sequence (P00533 25-1210): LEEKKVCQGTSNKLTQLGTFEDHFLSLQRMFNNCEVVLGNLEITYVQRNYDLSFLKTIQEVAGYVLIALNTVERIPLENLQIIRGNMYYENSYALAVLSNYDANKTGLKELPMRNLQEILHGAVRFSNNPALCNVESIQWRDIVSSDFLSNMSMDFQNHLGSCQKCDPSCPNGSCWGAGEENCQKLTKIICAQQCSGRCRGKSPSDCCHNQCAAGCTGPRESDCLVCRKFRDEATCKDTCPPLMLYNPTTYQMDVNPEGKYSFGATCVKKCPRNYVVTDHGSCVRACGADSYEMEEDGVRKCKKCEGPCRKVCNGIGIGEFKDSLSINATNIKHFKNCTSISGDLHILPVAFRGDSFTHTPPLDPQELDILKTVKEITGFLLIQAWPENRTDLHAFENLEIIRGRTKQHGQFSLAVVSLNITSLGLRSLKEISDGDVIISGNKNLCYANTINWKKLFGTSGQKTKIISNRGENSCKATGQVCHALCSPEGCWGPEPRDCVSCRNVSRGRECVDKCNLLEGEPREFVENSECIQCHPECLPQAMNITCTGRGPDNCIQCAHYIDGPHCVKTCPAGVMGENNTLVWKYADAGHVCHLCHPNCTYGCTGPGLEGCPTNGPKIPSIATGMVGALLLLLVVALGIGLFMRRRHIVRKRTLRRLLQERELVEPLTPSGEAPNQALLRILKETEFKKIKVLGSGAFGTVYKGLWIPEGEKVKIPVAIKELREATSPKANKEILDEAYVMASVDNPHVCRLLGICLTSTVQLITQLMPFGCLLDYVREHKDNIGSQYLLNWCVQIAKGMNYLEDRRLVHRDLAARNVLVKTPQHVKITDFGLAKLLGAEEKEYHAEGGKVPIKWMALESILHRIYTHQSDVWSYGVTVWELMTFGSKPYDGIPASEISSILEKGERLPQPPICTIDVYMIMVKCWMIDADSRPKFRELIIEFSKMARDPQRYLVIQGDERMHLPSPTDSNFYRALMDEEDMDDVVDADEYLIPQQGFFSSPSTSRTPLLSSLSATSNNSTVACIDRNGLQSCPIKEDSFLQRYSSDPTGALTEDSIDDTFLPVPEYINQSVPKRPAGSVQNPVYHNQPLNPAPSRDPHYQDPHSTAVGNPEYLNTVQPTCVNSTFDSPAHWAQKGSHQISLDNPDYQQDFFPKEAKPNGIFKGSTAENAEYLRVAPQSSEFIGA

[5] = biological target: T2, CHEK1 (checkpoint kinase-1) (Homo sapiens, UniProt O14757); assay: KinaseProfiler assay, CHEK1; type: biochemical; conditions: read-out: KAR value (kinase activity remaining)
T2 construct: purchased Merck Millipore (KinaseProfiler service)
T2 sequence (O14757 whole entry): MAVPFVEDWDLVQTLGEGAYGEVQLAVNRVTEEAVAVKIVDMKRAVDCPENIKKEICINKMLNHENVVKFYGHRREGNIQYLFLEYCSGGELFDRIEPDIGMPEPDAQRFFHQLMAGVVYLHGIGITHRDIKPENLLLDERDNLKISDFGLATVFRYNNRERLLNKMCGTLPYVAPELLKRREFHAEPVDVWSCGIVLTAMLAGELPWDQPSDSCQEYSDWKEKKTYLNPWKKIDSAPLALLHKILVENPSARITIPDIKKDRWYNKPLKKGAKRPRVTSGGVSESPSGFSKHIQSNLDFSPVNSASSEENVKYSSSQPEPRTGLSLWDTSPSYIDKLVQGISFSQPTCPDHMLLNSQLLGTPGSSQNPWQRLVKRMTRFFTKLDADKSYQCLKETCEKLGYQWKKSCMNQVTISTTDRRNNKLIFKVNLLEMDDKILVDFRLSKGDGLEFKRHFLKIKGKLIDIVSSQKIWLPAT
Description: The kinase activity remaining (KAR) value is inversely related to kinase activity.

[6] = biological target: T3, MKNK2 (MAPK-interacting kinase-2) (Homo sapiens, UniProt Q9HBH9); assay: KinaseProfiler assay, MKNK2; type: biochemical; conditions: read-out: KAR value (kinase activity remaining)
T3 construct: purchased Merck Millipore (KinaseProfiler service)
T3 sequence (Q9HBH9 whole entry): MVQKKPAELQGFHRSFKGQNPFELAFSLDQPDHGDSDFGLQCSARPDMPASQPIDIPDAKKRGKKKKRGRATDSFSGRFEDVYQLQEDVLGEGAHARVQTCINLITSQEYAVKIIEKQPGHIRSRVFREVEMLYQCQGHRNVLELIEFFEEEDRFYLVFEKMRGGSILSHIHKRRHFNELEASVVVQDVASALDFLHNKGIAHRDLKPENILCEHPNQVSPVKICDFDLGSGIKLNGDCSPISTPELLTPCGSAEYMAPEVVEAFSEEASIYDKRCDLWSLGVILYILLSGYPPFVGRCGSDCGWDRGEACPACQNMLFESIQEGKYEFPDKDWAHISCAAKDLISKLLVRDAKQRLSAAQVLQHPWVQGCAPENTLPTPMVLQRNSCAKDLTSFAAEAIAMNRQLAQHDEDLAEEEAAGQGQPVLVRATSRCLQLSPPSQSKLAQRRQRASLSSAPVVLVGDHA
Description: (§2) The kinase activity remaining (KAR) value is […] related to kinase activity. […]

[7] = biological target: T4, CSNK2A1 (casein kinase-2) (Homo sapiens, UniProt P68400); assay: KinaseProfiler assay, CSNK2A1; type: biochemical; conditions: CSNK2A1; 10 μM; read-out: KAR value (kinase activity remaining)
T4 construct: purchased Merck Millipore (KinaseProfiler service)
T4 sequence (P68400 whole entry): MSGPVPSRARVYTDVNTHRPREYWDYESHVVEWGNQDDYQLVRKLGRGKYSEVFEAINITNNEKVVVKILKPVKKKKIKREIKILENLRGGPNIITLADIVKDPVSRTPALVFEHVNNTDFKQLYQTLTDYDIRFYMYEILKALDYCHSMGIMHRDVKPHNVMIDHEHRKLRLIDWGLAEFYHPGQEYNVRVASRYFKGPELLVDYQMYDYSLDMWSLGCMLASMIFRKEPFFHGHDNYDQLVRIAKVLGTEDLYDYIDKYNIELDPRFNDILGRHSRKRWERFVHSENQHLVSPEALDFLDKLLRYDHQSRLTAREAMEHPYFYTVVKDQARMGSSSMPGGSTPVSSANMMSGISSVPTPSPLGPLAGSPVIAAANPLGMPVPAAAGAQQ
Description: as §2

[8] = biological target: T5, MAPK14 (stress-activated protein kinase-2a) (Homo sapiens, UniProt Q16539); assay: KinaseProfiler assay, MAPK14; type: biochemical; conditions: MAPK14; 10 μM; read-out: KAR value (kinase activity remaining)
T5 construct: purchased Merck Millipore (KinaseProfiler service)
T5 sequence (Q16539 whole entry): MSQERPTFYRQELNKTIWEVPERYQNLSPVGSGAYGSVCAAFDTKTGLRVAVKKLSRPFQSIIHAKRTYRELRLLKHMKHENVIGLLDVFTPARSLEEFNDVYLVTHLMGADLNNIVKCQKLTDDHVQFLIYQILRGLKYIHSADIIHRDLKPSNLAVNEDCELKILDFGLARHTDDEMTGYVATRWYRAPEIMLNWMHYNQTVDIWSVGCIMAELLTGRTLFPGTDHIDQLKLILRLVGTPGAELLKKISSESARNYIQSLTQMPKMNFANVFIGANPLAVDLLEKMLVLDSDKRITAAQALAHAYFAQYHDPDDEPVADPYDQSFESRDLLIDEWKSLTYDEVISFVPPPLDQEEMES
Description: as §2

[9] = biological target: T6, RET (product of ret proto-oncogene) (Homo sapiens, UniProt P07949); assay: KinaseProfiler assay, RET; type: biochemical; conditions: RET; 10 μM; read-out: KAR value (kinase activity remaining)
T6 construct: purchased Merck Millipore (KinaseProfiler service)
T6 sequence (P07949 29-1114): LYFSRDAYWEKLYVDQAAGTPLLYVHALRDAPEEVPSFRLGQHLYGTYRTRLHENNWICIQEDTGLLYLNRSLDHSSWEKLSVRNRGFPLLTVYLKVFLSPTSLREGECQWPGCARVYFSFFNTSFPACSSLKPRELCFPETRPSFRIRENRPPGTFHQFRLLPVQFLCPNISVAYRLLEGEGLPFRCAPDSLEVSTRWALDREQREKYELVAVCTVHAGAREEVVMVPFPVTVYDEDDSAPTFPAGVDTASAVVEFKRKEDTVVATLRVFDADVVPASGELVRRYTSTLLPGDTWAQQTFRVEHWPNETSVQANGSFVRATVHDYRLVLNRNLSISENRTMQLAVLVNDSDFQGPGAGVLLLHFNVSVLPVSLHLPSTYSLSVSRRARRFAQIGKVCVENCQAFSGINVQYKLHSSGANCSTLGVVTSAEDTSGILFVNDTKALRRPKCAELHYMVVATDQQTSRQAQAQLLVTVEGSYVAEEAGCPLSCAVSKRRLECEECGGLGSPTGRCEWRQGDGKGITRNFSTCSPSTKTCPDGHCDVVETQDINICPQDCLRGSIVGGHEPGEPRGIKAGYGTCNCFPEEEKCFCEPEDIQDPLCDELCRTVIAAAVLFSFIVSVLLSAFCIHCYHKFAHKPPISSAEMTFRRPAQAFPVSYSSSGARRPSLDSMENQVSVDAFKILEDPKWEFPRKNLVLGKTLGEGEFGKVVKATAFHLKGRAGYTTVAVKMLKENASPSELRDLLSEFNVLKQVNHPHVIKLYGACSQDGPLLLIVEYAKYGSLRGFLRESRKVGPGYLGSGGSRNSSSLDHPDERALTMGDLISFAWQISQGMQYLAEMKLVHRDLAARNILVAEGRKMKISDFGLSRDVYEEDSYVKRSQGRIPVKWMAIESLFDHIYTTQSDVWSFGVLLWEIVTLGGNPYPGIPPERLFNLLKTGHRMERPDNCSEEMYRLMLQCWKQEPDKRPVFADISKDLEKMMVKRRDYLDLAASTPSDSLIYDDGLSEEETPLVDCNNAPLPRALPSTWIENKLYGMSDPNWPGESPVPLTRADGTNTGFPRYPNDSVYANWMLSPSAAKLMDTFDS
Description: as §2

[10] = biological target: T7, LCK (lymphocyte kinase) (Homo sapiens, UniProt P06239); assay: KinaseProfiler assay, LCK; type: biochemical; conditions: read-out: KAR value (kinase activity remaining)
T7 construct: purchased Merck Millipore (KinaseProfiler service)
T7 sequence (P06239 whole entry): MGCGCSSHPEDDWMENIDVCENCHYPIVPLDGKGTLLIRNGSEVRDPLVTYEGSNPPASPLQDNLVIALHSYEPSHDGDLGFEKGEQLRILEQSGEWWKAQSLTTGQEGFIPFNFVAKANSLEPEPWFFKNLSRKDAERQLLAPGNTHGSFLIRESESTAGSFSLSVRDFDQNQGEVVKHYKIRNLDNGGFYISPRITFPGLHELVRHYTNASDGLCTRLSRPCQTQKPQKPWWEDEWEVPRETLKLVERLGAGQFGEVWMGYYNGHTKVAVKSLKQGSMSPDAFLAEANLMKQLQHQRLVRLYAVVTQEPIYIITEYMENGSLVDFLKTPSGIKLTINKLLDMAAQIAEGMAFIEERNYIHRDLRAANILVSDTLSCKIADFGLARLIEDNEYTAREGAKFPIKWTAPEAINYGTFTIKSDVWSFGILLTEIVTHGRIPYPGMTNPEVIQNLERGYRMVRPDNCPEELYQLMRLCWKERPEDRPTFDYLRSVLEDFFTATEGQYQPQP

[11] = biological target: T8, SYK (splenic tyrosine kinase) (Homo sapiens, UniProt P43405); assay: KinaseProfiler assay, SYK; type: biochemical; conditions: SYK; 10 μM; read-out: KAR value (kinase activity remaining)
T8 construct: purchased Merck Millipore (KinaseProfiler service)
Description: as §2

[12] = tested on: A549 cells; assay: Annexin V-PI apoptosis analysis by flow cytometry; type: cell-based, human; conditions: 10-40 μM for 24 hours
Experimental: The Annexin V-PI staining kit (BioVision, Mountain View, Calif.) was used to exam the cells by incubating with fluorescent isothiocyanate (FITC)-conjugated-Annexin V and PI according to the manufacturer's instruction. […] The cells were cultured in 60-mm Petri dish at a density of 7×10^5 cells for 16 to 20 hours. […] The cells were trypsinized and collected by centrifugation at 1500 rpm for 5 minutes. Thereafter, the cells were incubated with 500 μl Annexin V-PI labeling solution (containing 5 μl Annexin V-FITC and 5 μl PI in PBS) at room temperature in the dark for 5 minutes. To avoid cell aggregation, the cell solutions were filtered through a nylon mesh membrane (Becton-Dickinson, San Jose, Calif.). Finally, the samples were analyzed immediately using flow cytometer (FACS Calibur, BD Biosciences, Heidelberg, Germany). The percentage of Annexin V-PI staining cells was quantified from a minimum of 10,000 cells by CellQuest software (BD Biosciences).

[13] = tested on: A549 cells; assay: Cell growth, cell number by hemocytometer; type: cell-based, human; conditions: 30 μM for 24 hours, then cultured 2-6 days
Experimental: The cells were washed with PBS after the treatment. […] The cell number was calculated with hemocytometer.

[14] = tested on: A549 cells; assay: Cell cycle analysis, PI staining and flow cytometry; type: cell-based, human; conditions: 24 hours
Experimental: After the treatment, the cells were collected and fixed with ice-cold 70% ethanol overnight at −20° C. After centrifugation at 1500 rpm for 5 minutes, the pellets were treated with 4 μg/ml PI solution containing 1% Triton X-100 and 50 μg/ml RNase at 37 °C for 30 minutes in the dark. To avoid cell aggregation, the cell solutions were filtrated through nylon membrane (Becton-Dickinson, San Jose, Calif.). Subsequently, the samples were analyzed by flow cytometry. For each measurement, 10,000 cells were analyzed for DNA content. The percentage of cell cycle phases was quantified by ModFit LT software (Ver. 2.0, Becton-Dickinson).

[15] = tested on: survivin; assay: RT-PCR of survivin gene expression in A549 cells; type: cell-based, human; conditions: 0 to 40 μM, 24 hours
Experimental: After the treatment, total cellular RNA was purified by ZR RNA MiniPrep™ (Zymo Research, Irvine, Calif.) according to the manufacturer's protocol. RNA concentrations were determined by spectrophotometry. cDNAs were synthesized by SuperScript™ III reverse transcriptase with oligo (dT)12-18 primer (Invitrogen). Each reverse transcript was amplified with GAPDH as an internal control. Reverse transcription polymerase chain reaction (RT-PCR) was performed by a DNA thermal cycler (Mastercycler gradient, Hamburg, Germany). […] The conditions of RT-PCR are stated as followed: the initial denaturation was performed at 94° C. for 2 minutes, followed by 30 cycles at 94° C. for 30 seconds, 56° C. for 30 seconds, and 72° C. for 40 seconds; and 72° C. for 5 minutes. The PCR products were visualized on 1.2% agarose gels with ethidium bromide staining under UV transillumination, and photograph was taken by a camera DH27-S3 (Medclub, Taoyuan, Taiwan).

[16] = tested on: A549 human lung xenograft tumors; assay: Tumor growth of xenograft human lung tumors in nude mice; type: in vivo; conditions: 30 mg/kg three times every 4 days, day 16; control groups 406.52 mm^3
Description: (§3) The present invention determines the effect of Analogue-18 on tumor growth of the xenograft human lung tumors in nude mice. BALB/cAnN.Cg-FoxnInu/CrlNarl mice (3-week-old male) were obtained from BioLASCO (BioLASCO Co., Ltd., Taipei, Taiwan). After 2 weeks for environmental adaption, the mice were used for human lung cancer cell inoculation. Solid A549 flank tumors were established by subcutaneous injection of 2×10^6 cells. After 10 days, the mice bearing A549 human lung xenograft tumors were injected with 100 μl corn oil (control) or 30 mg/kg Analogue-18 for three times every 4 days. The tumor size of the mice was measured by a digital caliper every 4 days and calculated by the following formula: (length)×(width)^2×0.5. The xenograft tumors were harvested from scarified mice. The tumors were homogenized and the total lysate were subjected to Western blot analysis according to Example 4.

[17] = tested on: survivin; assay: Western blot of survivin protein in xenograft tumors; type: in vivo, nude mice; conditions: 30 mg/kg three times every 4 days
Description: as §3

[18] = tested on: PARP; assay: Western blot of cleaved PARP in A549 cells; conditions: 10-40 μM, 24 hours
Experimental: (§4) The protease inhibitors including 1 μg/ml aprotinin, 0.5 μg/ml leupeptin, and 100 μg/ml 4-(2-aminoethyl)benzenesulfonyl fluoride were added to the cell suspensions. The lysates were vibrated for 30 minutes at 4° C. and centrifuged at 10,000 rpm for 10 minutes. The protein concentrations were determined by the BCA protein assay kit (Pierce, Rockford, Ill.). […] The membranes were blocked overnight at 4° C. using blocking buffer (5% non-fat dried milk in solution containing 50 mM Tris/HCl (pH 8.0), 2 mM CaCl2, 80 mM NaCl, 0.05% Tween 20 and 0.02% sodium azide). The membranes were sequentially hybridized with primary antibody and followed with a horseradish peroxidase-conjugated secondary antibody. The protein bands were visualized on the X-ray film using the enhanced chemiluminescence detection system (PerkinElmer Life and Analytical Sciences, Boston, Mass.). […] To verify equal protein loading and transfer, actin was used as the protein loading control. The gel digitizing software, Un-Scan-It gel (Ver. 5.1, Silk Scientific, Inc., Orem, Utah), was used to analyze the intensity of protein bands on X-ray film.
(§5) A549 cells were plated at a density of 1×10^6 cells per 60-mm Petri dish in complete medium for 16 to 20 hours. […] To verify equal protein loading and transfer, actin was used as the protein loading control.

[19] = tested on: caspase 3; assay: Western blot of active caspase 3 in A549 cells; conditions: 10-40 μM, 24 hours
Experimental: as §4, §5

CCCCCCCCCCCCOC(=O)CCC(=O)N1CCN(CCCOc2cc3c(Nc4ccc(F)c(Cl)c4)ncnc3cc2OC)CC1 [Analogue-18, dodecyl 4-(4-(3-(4-(3-chloro-4-fluorophenylamino)-7-methoxyquinazolin-6-yloxy)propyl)piperazin-1-yl)-4-oxobutanoate]
toxicity effect on A549 cell line ([1]; 24 hours, in comparison with Iressa): best toxicity effect; also recorded: more effective on reducing cell viability than Iressa
toxicity effects ([1]; A549, 40 μM, 24 hours): more than 99%
increased toxicity effect ([1]; A549 cell line, 40 μM): 15-20 times
viability at 10 µM ([1]; Homo sapiens, A549 cell line, 10 μM, 24 hours, MTT): 95.5%
viability at 20 µM ([1]; Homo sapiens, A549 cell line, 20 μM, 24 hours, MTT): 86.8%
viability at 40 µM ([1]; Homo sapiens, A549 cell line, 40 μM, 24 hours, MTT): 5.7%
viability at 60 µM ([1]; Homo sapiens, A549 cell line, 60 μM, 24 hours, MTT): 2%
viability at 80 µM ([1]; Homo sapiens, A549 cell line, 80 μM, 24 hours, MTT): 2.3%
reducing cell viability ([2]; CL3, 0 to 40 μM, compared with Iressa): more effective on reducing cell viability than Iressa
toxicity effects ([2]; CL3, 40 μM): more than 99%
viability at 24 h [3]: > 30%
remaining activity at 10 µM [4]: -2%
remaining activity at 10 µM [5]: 69%
remaining activity at 10 µM [6]: 85%
remaining activity at 10 µM [7]: 76%
remaining activity at 10 µM [8]: 87%
remaining activity at 10 µM [9]: 98%
remaining activity at 10 µM [10]: 89%
remaining activity at 10 µM [11]: 87%
average of total apoptosis [12]: around 67.9%
cell growth of A549 cells [13]: inhibit cell growth of A549 cells, and Analogue-18 is more effective
fractions of G1, S and G2/M phases ([14]; 0 to 40 μM): does not significantly alter
average percentage of sub-G1 fractions ([14]; 40 μM): 66.7%
survivin gene expression [15]: significantly inhibited in a concentration-dependent manner
average tumor size [16]: 118.19 mm^3
survivin protein levels of xenograft tumors [17]: significantly reduced about half amount
cleaved form of PARP [18]: induced the cleaved form of PARP
active form of caspase 3 [19]: significantly induced

Source: patent publication US9512086B2, “Compound for promoting apoptosis of cancer cells and a pharmaceutical composition containing the same and uses thereof” (National Chiao Tung University, priority 2014, dated 2016)
